We go through three molecules from patent publication US4617189A, “Use of selenium-containing compounds for negating the toxic effects of platinum compounds used in chemotherapy, and a novel selenium-containing platinum compound and use thereof as an anti-cancer medicine” (priority 1985, dated 1986).

In data set [1] the test system is Cisplatin induced nephrotoxicity. Briefly: Platinum toxicity negating effect: blood urea nitrogen (BUN) determination in BDF1 mice given Cisplatin. The following applies: for BUN (≥30) on the fourth day / BUN (≥30) on the eleventh day: mice with BUN ≥30 / mice. The class given is in vivo, mouse (male BDF1). On the procedure:
BUN of the mice which have been administered a platinum complex increases due to the platinum poisoning in the kidney. […] The method of negating platinum toxicity of the present invention will be illustrated in more detail by way of Examples later.
Sodium selenite was administered to the peritoneal cavities of the mice at a dosage of 6.3 mg/kg. […] BUN of the mice was determined on the fourth day from the date of the administration. […] BUN of these control groups was also determined.
BUN of the mice was dertermined on the fourth day from the date of administration and on the eleventh day from the date of the administration. […] BUN of these control groups was also determined.
Our studies were carried out in BDF1 male mice weighing approximately 25 grams. All solutions were freshly were daily and given by the intraperitoneal route.
The BUN values were determined on the fourth day after the administration of cisplatinol.

In data set [2] the test system is cadmium induced testicular damage. The following applies: Kar and co-workers, 1969; cited from earlier work.
In data set [3] the test system is nephrotoxic effects of Cisplatin. The following applies: 750 mg/kg intraperitoneally or 100 mg/kg intravenously; cited from earlier work.
The mark [4] stands for this setting: Table 3, sodium selenite 1 mg/kg 2 hours before Cisplatin 14 mg/kg.
[5] abbreviates: Table 3, sodium selenite 2 mg/kg 2 hours before Cisplatin 14 mg/kg.
[6] abbreviates: Table 3, sodium selenite 4 mg/kg 2 hours before Cisplatin 14 mg/kg.
Setting [7] is: Table 3, sodium selenite 6 mg/kg 2 hours before Cisplatin 14 mg/kg.
[8] abbreviates: Table 3, sodium selenite 8 mg/kg 2 hours before Cisplatin 14 mg/kg.

`O=[Se](O)O` [Sodium selenite]: the “number of dead mice” value was 2 in data set [1] (Table 1, fourth day, sodium selenite 6.3 mg/kg 2 hours before Cisplatin 14 mg/kg); 1 in data set [1] (Table 2, fourth day, sodium selenite 6.3 mg/kg 3 hours before Cisplatin 14 mg/kg); 1 in data set [1] (Table 2, fourth day, sodium selenite 6.3 mg/kg 4 hours before Cisplatin 14 mg/kg); 1 in data set [1] (Table 2, fourth day, sodium selenite 6.3 mg/kg 6 hours before Cisplatin 14 mg/kg); 1 in data set [1] (Table 2, fourth day, sodium selenite 6.3 mg/kg simultaneously with Cisplatin 14 mg/kg); 1 in data set [1] (Table 3, eleventh day, sodium selenite 2 mg/kg 2 hours before Cisplatin 14 mg/kg). Moreover, the “number of dead mice” value in data set [1] (Table 3, eleventh day, sodium selenite 4 mg/kg 2 hours before Cisplatin 14 mg/kg) was 2; in data set [1] (Table 3, eleventh day, sodium selenite 6 mg/kg 2 hours before Cisplatin 14 mg/kg), 1; in data set [1] (Table 3, eleventh day, sodium selenite 8 mg/kg 2 hours before Cisplatin 14 mg/kg) it was 1; in data set [1] (Table 3, fourth day, sodium selenite 4 mg/kg 2 hours before Cisplatin 14 mg/kg) it was 1; in data set [1] (Table 3, fourth day, sodium selenite 8 mg/kg 2 hours before Cisplatin 14 mg/kg) it was 1. Besides, the “BUN (≥30) on the fourth day” value in data set [1] (Table 1, sodium selenite 6.3 mg/kg 1 hour after Cisplatin 14 mg/kg) is on record as 5/5; in data set [1] (Table 1, sodium selenite 6.3 mg/kg 2 hours before Cisplatin 14 mg/kg) it was 1/3; in data set [1] (Table 1, sodium selenite 6.3 mg/kg 4 hours before Cisplatin 14 mg/kg) it was 4/5; in data set [1] (Table 1, sodium selenite 6.3 mg/kg i.p. alone, no Cisplatin) it was 0/5; in data set [1] (Table 1, sodium selenite 6.3 mg/kg simultaneously with Cisplatin 14 mg/kg) it was 2/5; in data set [1] (Table 2, sodium selenite 6.3 mg/kg 1 hour before Cisplatin 14 mg/kg), 3/5. Moreover, the “BUN (≥30) on the fourth day” value is reported as 1/5 in data set [1] (Table 2, sodium selenite 6.3 mg/kg 2 hours before Cisplatin 14 mg/kg); 1/4 in data set [1] (Table 2, sodium selenite 6.3 mg/kg 3 hours before Cisplatin 14 mg/kg); 2/4 in data set [1] (Table 2, sodium selenite 6.3 mg/kg 4 hours before Cisplatin 14 mg/kg); 2/4 in data set [1] (Table 2, sodium selenite 6.3 mg/kg 6 hours before Cisplatin 14 mg/kg); 2/4 in data set [1] (Table 2, sodium selenite 6.3 mg/kg simultaneously with Cisplatin 14 mg/kg); 3/5 in data set [1] (setting [4]). For the same molecule, the “BUN (≥30) on the fourth day” value in data set [1] (setting [5]) is reported as 1/5; in data set [1] (setting [6]) it was 1/4; in data set [1] (setting [7]), 1/5; in data set [1] (setting [8]) it was 1/4. Also, the “BUN (≥30) on the eleventh day” value in data set [1] (setting [4]) is on record as 1/5; in data set [1] (setting [5]), 0/4; in data set [1] (setting [6]), 0/3; in data set [1] (setting [7]), 0/4; in data set [1] (setting [8]), 0/4.

With `[Se]` [selenium], the “cadmium induced testicular damage” value in data set [2] is “prevents”.

With `CCN(CC)C(=S)[S-].[Na+]` [sodium diethyldithiocarbamate], the “nephrotoxic effects of Cisplatin in female rats” value in data set [3] is “effectively inhibited”.
